Results reported in US11111232B2, “Substituted cyclobutylpyridine and cyclobutylpyrimidine compounds as indoleamine 2,3-dioxygenase (IDO) inhibitors” (MERCK SHARP & DOHME CORP., priority 2017, dated 2021).

Experiments:
Type in all cases: cell-based
IDO1 [1] = target: T1, IDO1 (Homo sapiens, UniProt P14902); assay: IDO1 HEK293 cellular assay; conditions: HEK293 cells transfected with Flag-IDO1 vector, 20-24 hours, fluorescence readout
Protocol: IDO1 HEK293 Cellular Assay
Compounds to be tested were serially diluted in ten 3-fold steps in DMSO starting from 10 mM DMSO stocks. Compound dilutions or DMSO alone were then dispensed from the dilution plate into a Greiner black 384-well assay plate (catalog #781086) using an Echo 550 acoustic liquid handler (Labcyte).
HEK293 cell pellets were resuspended to 5×10^5 cells/mL in complete HEK293 culture media (89% DMEM, 10% FBS, 1% penicillin/streptomycin). Suspended cells (2 mL) were dispensed into each well of a 6-well Corning plate (Catalog # 3516). Cells were allowed to attach and were incubated for 20 hours at 37° C. in a 5% CO2 incubator. Flag-IDO1 vector (Genscript True ORF Gold, 2 ug) in 150 uL of Opti-MEM medium was added to each well of a Corning 24 well plate (Cat # 3527) and incubated for 5 minutes at room temperature. To each well of the 24-well plate was added […] Lipofectamine 2000 (Gibco) and the plate incubated at room temperature for 20-30 minutes. To each well of attached cells in the 6-well plate, […] of the transfection mix from the 24-well plate was gently added to each well and IDO1 protein was allowed to express for 24-30 hours at 37 degrees Celsius in a 5% CO2 incubator.
Media was removed from the cells which were then washed with 2 mL Dulbecco's phosphate-buffered saline (DPBS). After removal of DPBS, 0.5 mL of TrypLE (Gibco) was added and incubated at 5 minutes until cells lift from the surface of the wells. Complete HEK293 culture media (4 mL) was added to each well and cells were collected and pooled into a conical tube. Cells were pelleted at 200×g for 5 minutes and resuspended in an equal volume of complete DMEM medium. Cells were diluted to 4×10^5 cells per mL in complete HEK293 media. L-Tryptophan was added to added to give a final concentration of […]. The diluted transfected cells […] or nontransfected cells […] were dispensed into wells of Greiner black 384-well assay plates (catalog #781086) containing previously diluted compounds. The plate is briefly mixed and centrifuged at 200×g for 10 seconds to collect cells at the bottom of the plate. Plates were covered and incubated for 20-24 hours at 37 degrees C. in a 5% CO2 incubator. Afterwards […] of 0.5 M methyl isonipecotate in dimethyl sulfoxide was added to each well, mixed, sealed, and centrifuged at 500 rpm for 10 seconds. Plates were incubated at 37 degrees in a 5% CO2 incubator overnight to develop fluoresence. The plates are allowed to cool and then centrifuged for 1 minute at 1000×g. The resulting fluoresence was measured in an Envision plate reader (Perkin Elmer) with a 400/25 nm excitation filter and an 510/20 nm emission filter.
(§1) The fluoresence intensity of each well was corrected for the background observed in wells with untransfected cells and was expressed as a fraction of the intensity observed in wells of IDO1 transfected cells and DMSO only. Potencies were calculated by linear least squares fit to the four parameter logistic IC50 equation.

IDO1 [2] = target: T1, IDO1; assay: IDO1 cellular assay in Hela cells stimulated with IFNγ; conditions: IFNγ 100 ng/mL, 300 uM L-tryptophan, about 48 hours, fluorescence readout
Protocol: IDO1 Cellular Assay in Hela Cells Stimulated with IFNγ
Hela cells were cultured in complete Hela culture medium (90% EMEM, 10% heat-inactivated fetal bovine serum) and expanded to about 1×10^9 cells. The cells were then collected and frozen down at 1×10^7 cells/vial in 1 mL frozen medium (90% complete Hela culture medium, 10% DMSO)
Compounds to be tested were serially diluted in ten 3-fold steps in DMSO starting from 10 mM DMSO stocks in Echo low volume plate(s).
Frozen Hela cells were thawed and transferred into Hela assay medium (99% complete Hela culture medium, 1% Pen/Strep) with 20 mL medium/vial of cells. The cells were spun down at 250 g in a table top centrifuge for 5 min and suspended in same volume of Hela assay medium. […] Sterile L-tryptophan were added to the cells with final concentration of 300 uM L-tryptophan. A small aliquot (2 mL/plate) of Hela cells were set aside and were not treated with IFNγ, to serve as the Max-E control.
Hela cells with and without IFNγ were dispensed to the respective wells of 384-well assay plates containing the compounds. The plates were incubated for about 48 hours at a 37° C., 5% CO2 incubator. Afterwards, […] of 0.5 M methyl isonipecotate in dimethyl sulfoxide were added into each well and the plates were sealed and incubated at 37° C. without CO2 overnight. The plates were centrifuged for 1 min at 200×g. The resulting fluorescence was measured in a Spectramax plate reader (Molecular Devices) with a 400 nm excitation filter and a 510 nm emission filter.
Potencies were calculated by linear least squares fit to the four parameter logistic IC50 equation.

TDO = target: T2, TDO (Homo sapiens, UniProt P48775); assay: TDO cellular assay in frozen SW48 cells; conditions: 300 uM L-tryptophan, about 48 hours, fluorescence readout
T2 construct: endogenous in cells; host or cells: SW48 cells (A2780 cells as low-TDO control)
Protocol: TDO Cellular Assay in Frozen SW48 Cells
SW48 cells were cultured in complete RPMI culture medium (90% RPMI, 10% heat-inactivated fetal bovine serum).
Compounds to be tested were serially diluted in ten 3-fold steps in DMSO starting from 10 mM DMSO stocks in Echo low volume plate(s). […] The cells were spun down at 350 g in a table top centrifuge for 5 minutes and suspended in same volume of RPMI assay medium. […] Sterile L-tryptophan (Sigma, Cat #T0254) was added to the cells with final concentration of 300 uM.
SW48 and A2780 cells were dispensed to the respective wells of 384-well assay plates containing the compounds. The plates were incubated for about 48 hours at a 37° C., 5% CO2 incubator. Afterwards, 12 μL of 0.5 M ethyl isonipecotate (Sigma Aldrich, Cat #E33505) in dimethyl sulfoxide were added into each well and the plates were sealed and incubated at 37° C. without CO2 overnight. The plates were centrifuged for 1 minute at 200×g. The resulting fluorescence was measured in a Spectramax plate reader (Molecular Devices) with a 400 nm excitation filter and a 510 nm emission filter.
as §1, with “fluorescence” for “fluoresence”, “A2780” for “untransfected”, “SW48” for “IDO1 transfected”

T2 sequence (P48775 whole entry): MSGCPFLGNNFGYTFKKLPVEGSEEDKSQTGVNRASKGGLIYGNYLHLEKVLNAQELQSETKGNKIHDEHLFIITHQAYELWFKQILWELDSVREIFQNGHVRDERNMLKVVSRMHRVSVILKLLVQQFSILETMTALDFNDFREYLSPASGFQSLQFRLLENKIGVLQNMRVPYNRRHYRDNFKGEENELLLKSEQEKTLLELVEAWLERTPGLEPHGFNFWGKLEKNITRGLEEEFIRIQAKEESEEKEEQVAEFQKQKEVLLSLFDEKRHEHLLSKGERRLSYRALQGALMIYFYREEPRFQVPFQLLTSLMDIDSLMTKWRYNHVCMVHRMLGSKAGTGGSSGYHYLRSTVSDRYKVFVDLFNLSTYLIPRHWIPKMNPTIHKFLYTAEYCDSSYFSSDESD
T1 sequence (P14902 whole entry): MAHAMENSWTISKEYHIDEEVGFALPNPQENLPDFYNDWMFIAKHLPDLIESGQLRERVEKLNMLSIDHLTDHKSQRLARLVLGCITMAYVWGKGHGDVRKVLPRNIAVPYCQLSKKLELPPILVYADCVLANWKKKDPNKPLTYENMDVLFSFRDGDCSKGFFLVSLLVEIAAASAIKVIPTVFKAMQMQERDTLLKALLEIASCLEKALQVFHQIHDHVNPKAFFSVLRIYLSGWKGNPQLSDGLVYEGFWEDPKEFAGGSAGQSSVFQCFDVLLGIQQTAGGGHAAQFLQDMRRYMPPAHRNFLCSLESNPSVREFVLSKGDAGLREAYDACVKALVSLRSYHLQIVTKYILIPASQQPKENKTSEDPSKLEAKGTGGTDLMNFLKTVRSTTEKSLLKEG

Row | Structure (SMILES) | IC50 (IDO1 [1]) | IC50 (IDO1 [2]) | IC50 (TDO)
1 | O=C(CCC(F)(F)F)Nc1ccc(C2(C(=O)Nc3ccc(F)cc3)CCC2)cn1 [Example 5, N-(4-fluorophenyl)-1-(6-(4,4,4-trifluorobutanamido)pyridin-3-yl)cyclobutane-1-carboxamide] | 76 nM | 72 nM | ≥ 10000 nM
2 | O=C(Nc1ccc(C2(C(=O)Nc3ccc(F)cc3)CCC2)cn1)C1CCCC(F)(F)C1 (stereo not drawn) [Example 17, 3,3-difluoro-N-(5-{1-[(4-fluorophenyl)carbamoyl]cyclobutyl}pyridin-2-yl)cyclohexane-1-carboxamide] | 26 nM | 28 nM | ≥ 10000 nM
3 | O=C(CCC1CC1)Nc1ccc(C2(C(=O)Nc3ccc(F)cc3)CCC2)cn1 [Example 18, 1-{6-[(3-cyclopropylpropanoyl)amino]pyridin-3-yl}-N-(4-fluorophenyl)cyclobutane-1-carboxamide] | 32 nM | 29 nM | ≥ 10000 nM
4 | O=C(Nc1ccc(C2(C(=O)Nc3ccc(F)cc3)CCC2)cn1)C1CCOCC1 [Example 20, N-(5-{1-[(4-fluorophenyl)carbamoyl]cyclobutyl}pyridin-2-yl)oxane-4-carboxamide] | 156 nM | 138 nM | ≥ 10000 nM
5 | O=C(Nc1ccc(C2(C(=O)Nc3ccc(F)cc3)CCC2)cn1)C1CCCOC1 (stereo not drawn) [Example 22, N-(5-{1-[(4-fluorophenyl)carbamoyl]cyclobutyl}pyridin-2-yl)oxane-3-carboxamide] | 123 nM | 154 nM | ≥ 10000 nM
6 | CC(C)CC(=O)Nc1ccc(C2(C(=O)Nc3ccc(F)cc3)CCC2)cn1 [Example 27, N-(4-fluorophenyl)-1-{6-[(3-methylbutanoyl)amino]pyridin-3-yl}cyclobutane-1-carboxamide] | 28 nM | 25 nM | ≥ 10000 nM
7 | O=C(CC1CC1)Nc1ccc(C2(C(=O)Nc3ccc(F)cc3)CCC2)cn1 [Example 30, 1-{6-[(cyclopropylacetyl)amino]pyridin-3-yl}-N-(4-fluorophenyl)cyclobutane-1-carboxamide] | 70 nM | 83 nM | ≥ 10000 nM
